According to US9579380B2, “Microporation of tissue for delivery of bioactive agents” (priority 1996, dated 2017):

Columns and labels:
healthy male volunteers = test: Alprostadil delivery through micropores on the penis shaft with ultrasonic transducer, clinical responses; format: in vivo, human; conditions: both subjects
Description: Alprostadil, or PGE1, is a prostaglandin used therapeutically to treat male erectile dysfunction via it's vasodilator behavior. The standard delivery mode for this drug is a direct injection into the base of the penis or via a suppository inserted into the urethra. A set of experiments were conducted with two healthy male volunteers. […] A concentrated solution of alprostadil was placed in a small reservoir patch placed on the poration site, an ultrasonic transducer was then placed on the top of the reservoir and activated and the subject's erectile and other clinical responses were recorded on video tape. Both subjects developed a significant amount of engorgement of the penis, estimated as achieving 70% of more of a full erection at the dose applied. In addition, a malar flush response to the systemic levels of the drug delivered was observed. […] Both the erectile response and the malar flush provide evidence of the delivery of a clinically active amount of the drug, a well know vasodilator.

[1] = human
[2] = Morphine delivery through porated volar forearm with positive pressure gradient, venous blood morphine; conditions: solution on porated volar forearm
Description: A solution of morphine is applied to a porated area on the volar forearm of the human subjects. A positive pressure gradient is used to provide a basal delivery rate of the morphine into the body, as determined by assay of venous blood draws at appropriate time intervals for the presence of morphine. […] Upon demand, an additional pressure bolus is applied to result in a spike in the delivery of the morphine. The additional pressure bolus is achieved in one test by use of ultrasound; or in another experiment by the use of a pressure spike.

[3] = system: volar forearm of a healthy volunteer; test: Heparin delivery through micropores, passive or with iontophoresis, with microscopic examination of the site
Description: A heparin solution was applied to skin porated to a depth of approximately 100 μm, allowing either passive diffusion or coupled with iontophoresis (about 1 mA/cm^2) that was applied for a sufficient period of time to transport the heparin through the micropores into the underlying tissues. […] An experiment was conducted wherein a site on the volar forearm of a healthy volunteer was prepared by creating a matrix of 36 micropores within a 1 square cm area. A small reservoir containing a sodium heparin solution and the negative electrode for an iontophoretic system was attached to the site. The positive electrode was attached to the subject's skin some distance away using a hydrogel electrode obtained from Iomed, a commercial supplier of iontophoretic systems. The system was run for ten minutes at 0.2 milliamperes per square cm.

[4] = system: healthy non-diabetic subject; test: Insulin delivery through porated skin, finger stick blood glucose; format: in vivo, human
Excerpt: Insulin, like many compounds normally present in the healthy individual, is a polypeptide which must be maintained in individuals, such as diabetics who need exogenous insulin, at both a basal level and be given in a pulsatile bolus fashion in response to meals and the subject's activity levels. Currently this is achieved via subcutaneous injections of fast acting and slow acting formulations. Because of the molecular weight of insulin, typically ˜6000, it is not able to be delivered at clinically useful levels with traditional transdermal or transmucosal methods. However, by opening the micropores through the barrier layers of the skin or mucosa, a clear path is provided allowing the delivery of the insulin into the viable tissues wherein the interstitial fluid present in these tissues will allow diffusion (including osmotically driven) of the insulin to and into the lymph system and capillary bed, delivering clinically useful amounts. A concentrated insulin solution containing 3500 IU/ml of recombinant human insulin purchased from Boehringer-Mannhein Co., was applied in a reservoir to a porated of the subject's skin on the volar forearm covering 4 square cm. The healthy, person, non-diabetic, subject fasted for 14 hours prior to the start of the experiment. Intravenous and finger stick blood samples were drawn periodically prior to and after the delivery phase began and assayed for glucose, insulin and C-peptide.
The use of liposomes, lipid complexes, microspheres including nanospheres, PEGellated compounds (compounds combined with polyethylene glycol) and other microparticles as part of a drug delivery system is well developed for many different specific applications. In particular, when dealing with a compound which is easily broken down by the endogenous components in the body's tissues such as protease, nuclease, or carbohydrase enzymes in the skin, tissues, the macrophages or other cells present in the blood stream or lymph, increases in bio-availability and/or sustained […]. A repeat of this procedure with the addition of ultrasound operating at 44 khz, and 0.2 watts/square cm indicated a more rapid delivery of the insulin as evidenced by the subject's glucose levels which dropped from 109 mg/dl to 78 mg/dl less than 30 minutes after the delivery began. As in the case of example 45, for heparin delivery, a low current iontophoretic system can be coupled with the micropores to facilitate a greater flux rate and provide the ability to modulate this flux rate by varying the current, allowing a delivery on demand type of system to be built. Previous work with insulin has typically shown that relatively high iontophoretic currents are required to overcome the strong barrier properties of the intact stratum corneum. […]

CCCCC[C@H](O)/C=C/[C@H]1[C@H](O)CC(=O)[C@@H]1CCCCCCC(=O)O [alprostadil, Alprostadil]
engorgement of the penis, estimated share of a full erection (healthy male volunteers; 12 to 36 micropores, roughly 100 microns deep, on 1 square cm, concentrated solution plus ultrasonic transducer): ≥ 70%
malar flush response to systemic levels of the drug (healthy male volunteers; over a 30 to 60 minute delivery period): profound malar flush

CN(C)c1ccc2nc3ccc(=[N+](C)C)cc-3sc2c1 [methylene blue, Methylene blue]
lag time of pulse of indicator molecules on application of sonic energy [1]: < 0.1 s
shutoff lag of pulse of indicator molecules on turning off sonic energy [1]: < 0.1 s
level of dye solution in receiver medium (no visual indication of dye flux) ([1]; 5 min): < 0.0015 % (v/v)

CN1CC[C@]23c4c5ccc(O)c4O[C@H]2[C@@H](O)C=C[C@H]3[C@H]1C5 [morphine]
basal level of morphine in venous blood [2]: 3 to 6 ng/mL

heparin
clotting of red cells in collected ISF ([3]; 36 micropores in 1 square cm, iontophoresis 0.2 milliamperes per square cm for ten minutes): no clotting took place
microscopic examination of the site ([3]; 36 micropores in 1 square cm, sodium heparin solution, iontophoresis 0.2 milliamperes per square cm for ten minutes): vasodilation of the capillaries
microscopic examination of the in vivo site ([3]; skin porated to approximately 100 μm, passive diffusion and iontophoresis (about 1 mA/cm^2)): increased capillary dilation and permeability

insulin
time to depression of glucose levels ([4]; 3500 IU/ml solution on 4 square cm porated volar forearm, passive): approximately 4 hours
finger stick blood glucose after depression ([4]; 3500 IU/ml solution on 4 square cm porated volar forearm, passive, fasted 14 hours, from 100 mg/dl at the start, over a ten minute cycle): 67 mg/dL
time to glucose drop after delivery began ([4]; with ultrasound at 44 khz and 0.2 watts/square cm): less than 30 minutes
glucose level after drop ([4]; with ultrasound at 44 khz and 0.2 watts/square cm, from 109 mg/dl): 78 mg/dL
